The values below come from ChEMBL document CHEMBL1201862, “PubChem BioAssay data set” (2004).

Test systems include 786-0; ACHN; EKVX; HL-60; HOP-92; IGROV-1; MCF7; NCI-H522; OVCAR-4; OVCAR-5; SNB-75; T47D; TK-10; U-251; UACC-257; UACC-62; NCI-H460; SR; BT-549.
What all share (test): growth of human tumour cells (NCI), 48 h

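Five concentrations, 48 hours, 96-well plates. GI50 is the concentration that inhibits growth by half.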 Active and inactive are the calls of the source. Cut-off read from the data, not from the text of the source: active = GI50 up to about 1.1 µM and inactive = higher. Peptide text beside a SMILES is read from it. * marks the point of attachment. Trt = c1ccc(C(c2ccccc2)(c2ccccc2)*)cc1; Cbz = O=C(OCc1ccccc1)*

Turning to `O=C1CCCc2cc3c(cc21)CC1(Cc2ccccc2C1)C3`, the GI50 was 6.28 µM (inactive) in the assay on 786-0; 4.55 µM (inactive) in the assay with ACHN; 9.14 µM (inactive) in the assay with EKVX; 1.84 µM (inactive) in the assay with HL-60; 10.8 µM (inactive) with HOP-92; 7.43 µM (inactive) in the assay on IGROV-1. Moreover, the GI50 is 3.9 µM (inactive) in the assay on MCF7; 3.94 µM (inactive) in the assay with NCI-H522; 6.31 µM (inactive) in the assay with OVCAR-4; 7.66 µM (inactive) in the assay with OVCAR-5; 0.106 µM (active) with SNB-75; 5.24 µM (inactive) in the assay with T47D. The GI50 with TK-10 was 7.16 µM (inactive); with U-251, 5.38 µM (inactive); with UACC-257 it was 3.48 µM (inactive); with UACC-62, 8.91 µM (inactive).

Take `CCOC(=O)N(C)C(=C(F)F)C(F)(F)F`: the GI50 with 786-0 is 21.7 µM (inactive); with ACHN it was > 10 µM (inactive); in the assay with EKVX, 27.6 µM (inactive); with HL-60 it was 20.4 µM (inactive); in the assay on HOP-92, 25.4 µM (inactive); with IGROV-1, 21.2 µM (inactive). In addition, the GI50 in the assay on MCF7 is 36.6 µM (inactive); in the assay on NCI-H460, 28.6 µM (inactive); in the assay on OVCAR-4, 28 µM (inactive); with OVCAR-5, 35.5 µM (inactive); with SNB-75, 29.5 µM (inactive); in the assay with SR, 3.95 µM (inactive). Besides, the GI50 in the assay with T47D was 26.8 µM (inactive); with TK-10, 27.8 µM (inactive); in the assay with U-251, 30.4 µM (inactive); in the assay with UACC-257, 31.5 µM (inactive); with UACC-62 it was > 10 µM (inactive).

Consider `COc1cc(/C=C(\C#N)c2ccccc2)cc(OC)c1`, for which the GI50 in the assay on 786-0 was 31.8 µM (inactive); in the assay on ACHN it was 60.5 µM (inactive); in the assay with EKVX, 77.1 µM (inactive); in the assay with HL-60, 24.3 µM (inactive); in the assay on IGROV-1, 71 µM (inactive); with NCI-H460, 42.6 µM (inactive). For the same molecule, the GI50 in the assay on NCI-H522 was 32.4 µM (inactive); in the assay on OVCAR-4 it was > 100 µM (inactive); with OVCAR-5 it was 55.1 µM (inactive); with SR it was 36.1 µM (inactive); in the assay with TK-10, > 100 µM (inactive); with U-251 it was 28.3 µM (inactive). Moreover, the results for the GI50 in the assay on UACC-257 and with UACC-62 were 8.59 µM (inactive) and 32.4 µM (inactive), respectively.

Regarding `c1cc2c(c(NC3=NCCO3)c1)CCC2`, the GI50 in the assay with 786-0 is > 100 µM (inactive); in the assay with ACHN, > 100 µM (inactive); in the assay on EKVX it was > 100 µM (inactive); in the assay on HL-60 it was 60.1 µM (inactive); in the assay on HOP-92, 94.4 µM (inactive); with IGROV-1, > 100 µM (inactive). The GI50 with MCF7 was > 100 µM (inactive); with NCI-H460, > 100 µM (inactive); in the assay on NCI-H522 it was > 100 µM (inactive); in the assay with OVCAR-4, > 100 µM (inactive); in the assay on OVCAR-5, > 100 µM (inactive); with SR, 86.5 µM (inactive). Further, the GI50 with T47D, in the assay with TK-10, in the assay on U-251, in the assay on UACC-257 and in the assay on UACC-62 was > 100 µM (inactive) in each case.

Turning to `COc1cc(/C=C/C(=O)O)ccc1O` [FERULATE], the GI50 in the assay on 786-0, in the assay on ACHN, in the assay on EKVX, with HL-60, in the assay with HOP-92 and with IGROV-1 was > 100 µM (inactive) in each case. Also, the GI50 in the assay on MCF7, with NCI-H460, with NCI-H522, in the assay with OVCAR-4, in the assay on OVCAR-5 and with SNB-75 was > 100 µM (inactive) in each case. The GI50 in the assay with SR, in the assay with T47D, with TK-10, with U-251 and with UACC-257 was > 100 µM (inactive) in each case.

`CC(=O)Nc1cc(Nc2cc(O)nc(O)n2)ccc1C`: the GI50 in the assay with 786-0, in the assay on ACHN, with BT-549, with EKVX, in the assay on HL-60 and in the assay on HOP-92 was > 100 µM (inactive) in each case. Further, the GI50 with IGROV-1, with MCF7, with NCI-H460, in the assay on OVCAR-4, with OVCAR-5 and with SNB-75 was > 100 µM (inactive) throughout. The GI50 in the assay on SR, in the assay with TK-10, with U-251 and with UACC-257 was > 100 µM (inactive) in each case.

`NCCCCC(NC(=O)C(N)Cc1ccc(O)cn1)C(=O)O` (stereo not given): the GI50 with 786-0, with ACHN, in the assay on BT-549, in the assay with EKVX, in the assay on HL-60 and in the assay with HOP-92 was > 100 µM (inactive) throughout. Also, the GI50 with IGROV-1, with MCF7, in the assay with NCI-H460, in the assay with NCI-H522, in the assay with OVCAR-4 and in the assay with OVCAR-5 was > 100 µM (inactive) throughout. The GI50 in the assay on SR, with TK-10, in the assay with U-251 and with UACC-257 was > 100 µM (inactive) each time.

In the case of `O=C1Nc2c(Cl)cc(Cl)cc2/C1=N/NC(=O)c1ccncc1`, the GI50 is 17.4 µM (inactive) in the assay with 786-0; 38 µM (inactive) in the assay on ACHN; 37.8 µM (inactive) in the assay on BT-549; 28.5 µM (inactive) with EKVX; 9.64 µM (inactive) in the assay on HL-60; 33.2 µM (inactive) in the assay with HOP-92. The GI50 was 22.9 µM (inactive) in the assay on IGROV-1; 32.9 µM (inactive) in the assay on MCF7; 46.7 µM (inactive) in the assay with NCI-H460; 22.2 µM (inactive) in the assay with OVCAR-4; 61 µM (inactive) in the assay with OVCAR-5; 46.3 µM (inactive) with SNB-75. Further, the GI50 is 14.7 µM (inactive) in the assay on SR; 73.1 µM (inactive) with TK-10; 18.1 µM (inactive) in the assay on U-251; 19.6 µM (inactive) in the assay on UACC-257; 17.3 µM (inactive) with UACC-62.

On to `CC(=O)c1cnc2oc3ccc(O)cc3c2c1-c1ccccc1`, for which the GI50 in the assay on 786-0 is 39.4 µM (inactive); in the assay with ACHN, 21.1 µM (inactive); with EKVX it was 23.9 µM (inactive); in the assay with HL-60, 37.5 µM (inactive); in the assay with HOP-92, 18.3 µM (inactive); in the assay with MCF7, 48.2 µM (inactive). For the same molecule, the GI50 in the assay with NCI-H460 is 33.5 µM (inactive); in the assay with OVCAR-4, 15 µM (inactive); in the assay with OVCAR-5 it was 71.6 µM (inactive); in the assay on SR, 33.3 µM (inactive); in the assay with T47D, 10.8 µM (inactive); with TK-10, 28.6 µM (inactive). Besides, the results for the GI50 in the assay with U-251, with UACC-257 and with UACC-62 were 52.4 µM (inactive), 65.2 µM (inactive) and 20.5 µM (inactive), respectively.

As to `COC(=O)C(CO)NC(=O)C(CSC(c1ccccc1)(c1ccccc1)c1ccccc1)NC(=O)OCc1ccccc1` (stereo not given) (Cbz-Cys(Trt)-Ser-OMe; configuration not given here), the GI50 is 20.9 µM (inactive) in the assay with 786-0; 21.2 µM (inactive) with ACHN; 16 µM (inactive) in the assay with EKVX; 5.75 µM (inactive) in the assay on HL-60; 15.2 µM (inactive) with HOP-92; 16.8 µM (inactive) in the assay with IGROV-1. For the same molecule, the GI50 with MCF7 is 14.8 µM (inactive); with NCI-H460, 8.81 µM (inactive); with NCI-H522 it was 15.5 µM (inactive); with OVCAR-4 it was 20.6 µM (inactive); in the assay with OVCAR-5 it was 17.7 µM (inactive); in the assay on SNB-75 it was 17.6 µM (inactive). The GI50 in the assay with SR was 0.158 µM (active); in the assay on T47D, 20.7 µM (inactive); with TK-10 it was 24.5 µM (inactive); with U-251, 16.7 µM (inactive); in the assay on UACC-62, 12.1 µM (inactive).

Turning to `CN/N=C(/Cc1occc(=O)c1O)C(=O)Nc1ccc(C)c(C)c1`, the GI50 in the assay with 786-0, with ACHN, with EKVX, in the assay with HL-60, in the assay on HOP-92 and in the assay on IGROV-1 was > 100 µM (inactive) each time. In addition, the GI50 in the assay with NCI-H460, in the assay on NCI-H522, in the assay on OVCAR-4, in the assay with OVCAR-5, in the assay with SR and in the assay with TK-10 was > 100 µM (inactive) in each case. Also, the GI50 in the assay with U-251, in the assay on UACC-257 and with UACC-62 was > 100 µM (inactive) in each case.

In the case of `C/C(CC(=O)Nc1ccc(NC(=O)/C(C)=N/NS(=O)(=O)c2ccc(C)cc2)cc1)=N\NS(=O)(=O)c1ccc(C)cc1`, the GI50 in the assay on 786-0, in the assay with ACHN, in the assay on EKVX, with HL-60, with HOP-92 and with IGROV-1 was > 100 µM (inactive) in each case. Moreover, the GI50 in the assay on NCI-H460, with OVCAR-5, with SNB-75, with TK-10, with U-251 and in the assay with UACC-257 was > 100 µM (inactive) in each case. For the same molecule, the GI50 in the assay with UACC-62 is > 100 µM (inactive).
